Laboratory results: PMC7395068, “The evolution of strategies to minimise the risk of human drug-induced liver injury (DILI) in drug discovery and development” (Archives of Toxicology, 2020)
Where two headings read alike, the source gives them in different places. Blank lines part the entries; values can stand above or below the compound they belong to.

Assays:
[1] = cited from earlier work; for DILI severity category (Chen et al. [2016]): LTKB DILIrank category; for DILI severity category (Chen et al. [2016]) / DILI severity category (Chen 2016): ref Chen et al. 2016; for DILI severity category (Chen 2016): human DILI classification, LTKB DILIrank
[2] = tested on: THLE or HepG2 cells, isolated mitochondria, BSEP; settings: cited from earlier work
hLiMTs [3] = experiment: Combined HCI (HCS) and cellular ATP 3D assay in hLiMTs; settings: for AC50 / minimal effective concentration: Homo sapiens; for DILI prediction hLiMTs (HCS-MEC): Microtissue model structural based (HCI), combined HCS and ATP, MEC < 25 × Cmax.tot cut-off; for hLiMTs <25x Avg Cmax ATP / hLiMTs <100x Avg Cmaxu ATP: ATP endpoint; for hLiMTs <25x Avg Cmax ATP / hLiMTs <25x Avg Cmax HCS / hLiMTs <25x Avg Cmax All: cut-off <25x Avg Cmax; for hLiMTs <100x Avg Cmaxu ATP / hLiMTs <100x Avg Cmaxu HCS / hLiMTs <100x Avg Cmaxu All: cut-off <100x Avg Cmaxu; for hLiMTs <25x Avg Cmax HCS / hLiMTs <100x Avg Cmaxu HCS: HCS endpoints; for hLiMTs <25x Avg Cmax All: all endpoints (ATP and HCS); for hLiMTs Cmax max All / hLiMTs Cmax min All / hLiMTs <10 uM All / hLiMTs <100x Avg Cmaxu All: all endpoints; for hLiMTs Cmax max All: Cmax max used; for hLiMTs Cmax min All: Cmax min used; for hLiMTs <10 uM All: cut-off <10 uM
hLiMTs [4] = settings: cited from earlier work; for hLiMTs ATP <100uM: In vitro Assay, ref Proctor 2017; for hLiMTs/100uM, Proctor (2017) / hLiMTs/100xCmax, Proctor (2017): ATP, ref Proctor et al. 2017; for hLiMTs/100uM, Proctor (2017): IC50 threshold 100 µM; for hLiMTs/100xCmax, Proctor (2017): IC50 < 100 × Cmax.tot
human hepatocytes = settings: cited from earlier work
PHH = settings: cited from earlier work; for PHH/100uM, Proctor (2017) / PHH/100xCmax, Proctor (2017): 2D PHH, ATP, ref Proctor et al. 2017; for PHH/100uM, Proctor (2017): IC50 threshold 100 µM; for PHH ATP <100uM: In vitro Assay, ref Proctor 2017; for PHH/100xCmax, Proctor (2017): IC50 < 100 × Cmax.tot
[5] = cited from earlier work; for Assigned DILI category: Chen et al. 2016 or literature alignment, ref Chen et al. 2016
[6] = tested on: HepG2 C3A spheroid, BSEP, Glu/Gal in HepG2 cells, bioactivation; settings: cited from earlier work; for Bayesian Machine Learning DILI prediction, Williams (2019): Bayesian modeling, ref Williams et al. 2019; for Bayesian Machine Learning: ref Williams 2019
[7] = plasma free fraction; cited from earlier work
[8] = tested on: HepG2 cells, primary human hepatocytes; settings: In vitro Assay; ref Garside 2014; cited from earlier work
[9] = tested on: isolated mouse liver mitochondria; settings: In vitro Assay; ref Porceddu 2012; cited from earlier work
PHH spheroids = settings: cited from earlier work
HepaRG spheroids = experiment: Combined HCI (HCS) and cellular ATP 3D assay in HepaRG spheroids; settings: for HepaRG <25x Avg Cmax ATP / HepaRG <100x Avg Cmaxu ATP: ATP endpoint; for HepaRG <25x Avg Cmax ATP / HepaRG <25x Avg Cmax HCS / HepaRG <25x Avg Cmax All: cut-off <25x Avg Cmax; for HepaRG <100x Avg Cmaxu ATP / HepaRG <100x Avg Cmaxu HCS / HepaRG <100x Avg Cmaxu All: cut-off <100x Avg Cmaxu; for HepaRG <25x Avg Cmax HCS / HepaRG <100x Avg Cmaxu HCS: HCS endpoints; for HepaRG <25x Avg Cmax All: all endpoints (ATP and HCS); for HepaRG Cmax max All / HepaRG Cmax min All / HepaRG <10 uM All / HepaRG <100x Avg Cmaxu All: all endpoints; for HepaRG Cmax max All: Cmax max used; for HepaRG Cmax min All: Cmax min used; for HepaRG <10 uM All: cut-off <10 uM; for AC50 / minimal effective concentration: Homo sapiens; for HepaRG <25x Avg Cmax ATP / HepaRG <100x Avg Cmaxu ATP / HepaRG <25x Avg Cmax HCS / HepaRG <100x Avg Cmaxu HCS / HepaRG <25x Avg Cmax All / HepaRG Cmax max All / HepaRG Cmax min All / HepaRG <10 uM All / HepaRG <100x Avg Cmaxu All / AC50 / minimal effective concentration: HepaRG; for DILI prediction HepaRG spheroids (HCS-MEC): Microtissue model structural based (HCI), combined HCS and ATP, MEC < 25 × Cmax.tot cut-off
[10] = read-out: Human plasma Cmax; total plasma Cmax.tot, median of 9 literature references; cited from earlier work
[11] = human DILI severity, ref Chen et al.
[12] = Modeled in vitro assays (cytotoxicity, mitochondrial dysfunction, BSEP), ref Aleo et al. 2019

hLiMTs <25x Avg Cmax ATP (hLiMTs [3]): +ve
hLiMTs <100x Avg Cmaxu ATP (hLiMTs [3]): +ve (<100x Avg Cmaxu)
hLiMTs <25x Avg Cmax HCS (hLiMTs [3]): +ve
hLiMTs <100x Avg Cmaxu HCS (hLiMTs [3]): +ve (<100x Avg Cmaxu)
hLiMTs <25x Avg Cmax All (hLiMTs [3]): +ve
hLiMTs Cmax max All (hLiMTs [3]): +ve
hLiMTs Cmax min All (hLiMTs [3]): +ve
hLiMTs <10 uM All (hLiMTs [3]): +ve (<10 uM)
hLiMTs <100x Avg Cmaxu All (hLiMTs [3]): +ve (<100x Avg Cmaxu)
HepaRG <25x Avg Cmax ATP (HepaRG spheroids): +ve
HepaRG <100x Avg Cmaxu ATP (HepaRG spheroids): +ve (<100x Avg Cmaxu)
HepaRG <25x Avg Cmax HCS (HepaRG spheroids): +ve
HepaRG <100x Avg Cmaxu HCS (HepaRG spheroids): +ve (<100x Avg Cmaxu)
HepaRG <25x Avg Cmax All (HepaRG spheroids): +ve
HepaRG Cmax max All (HepaRG spheroids): +ve
HepaRG Cmax min All (HepaRG spheroids): +ve
HepaRG <10 uM All (HepaRG spheroids): +ve (<10 uM)
HepaRG <100x Avg Cmaxu All (HepaRG spheroids): +ve (<100x Avg Cmaxu)
SMILES: C1CCC(C(CC2CCCCN2)C2CCCCC2)CC1 (stereo not shown) [perhexiline]
DILI severity category (Chen et al. [2016]) [1]: Most
DILI severity category (Chen 2016) [1]: Most
DILI severity category [1, 11]: Most
DILI +VE (5-8), DILI -VE (-4) ([1]; ref Chen 2016): +VE
DILI severity category ([1]; ref Chen 2016): vMost-DILI-Concern
Partition Hybrid HRM Score ([2]; In vitro Assay, ref Aleo 2019): +VE
Ro2 Hybrid HRM Score ([2]; In vitro Assay, ref Aleo 2019): +VE
Partition Hybrid HRM Score ≥4, Aleo (2019) [2, 12]: +VE (Partition Hybrid HRM Score ≥4)
Partition Hybrid HRM Score ≥8, Aleo (2019) [2, 12]: +VE (Partition Hybrid HRM Score ≥8)
Rule of Two hybrid HRM Score ≥3, Aleo (2019) [2, 12]: +VE (Rule of Two hybrid HRM Score ≥3)
Rule of Two hybrid HRM Score ≥8, Aleo (2019) [2, 12]: +VE (Rule of Two hybrid HRM Score ≥8)
AC50 (hLiMTs [3]; read-out: ATP endpoint AC50): 1.69 µM
minimal effective concentration (hLiMTs [3]; read-out: ATP endpoint MEC): 1.49 µM
AC50 (hLiMTs [3]; read-out: HCS endpoint AC50): 1.75 µM
minimal effective concentration (hLiMTs [3]; read-out: HCS endpoint MEC): 0.354 µM
DILI prediction hLiMTs (HCS-MEC) (hLiMTs [3]): +VE (MEC < 25 × Cmax.tot cut-off)
hLiMTs ATP <100uM (hLiMTs [4]): +VE (IC50 threshold of 100 µM)
hLiMTs/100uM, Proctor (2017) (hLiMTs [4]): +VE (IC50 threshold of 100 µM)
Structural based (HCI) (human hepatocytes; In vitro Assay, ref Xu 2008): +VE
DILI in vitro assay prediction, Xu (2008) (human hepatocytes; Structural based (HCI), human hepatocytes, ref Xu et al. 2008): +VE
PHH/100uM, Proctor (2017) (PHH): +VE (IC50 threshold of 100 µM)
PHH ATP <100uM (PHH): +VE (IC50 threshold of 100 µM)
Assigned DILI category [5]: 3
In vivo DILI ([5]; […]): +VE
In vivo DILI ([5]; ref Aleo 2019): +VE
In vivo DILI ([5]; ref Garside 2014): +VE
In vivo DILI ([5]; ref Porceddu 2012): +VE
In vivo DILI ([5]; ref Proctor 2017): +VE
In vivo DILI ([5]; ref Vorrink 2018): +VE
In vivo DILI ([5]; ref Williams 2019): +VE
In vivo DILI ([5]; ref Xu 2008): +VE
Bayesian Machine Learning DILI prediction, Williams (2019) [6]: +VE
Bayesian Machine Learning ([6]; In vitro Assay): +VE
fu [7]: 0.100
Cluster 1-6 +VE Assay [8]: +VE
in vitro data EC2<=1x Cmax [9]: +VE
in vitro data EC20<=2uM [9]: +VE
hLiMTs ATP <20 x Cmax (PHH spheroids; In vitro Assay, ref Vorrink 2018): +VE (IC20 < 20 × Cmax.tot cut-off)
DILI in vitro assay prediction, Vorrink (2018) (PHH spheroids; PHH spheroids, ATP, 14 days, IC20 < 20 × Cmax.tot, ref Vorrink et al. 2018): +VE (IC20 < 20 × Cmax.tot cut-off)
AC50 (HepaRG spheroids; read-out: ATP endpoint AC50): 3.69 µM
minimal effective concentration (HepaRG spheroids; read-out: ATP endpoint MEC): 1.76 µM
AC50 (HepaRG spheroids; read-out: HCS endpoint AC50): 6.32 µM
minimal effective concentration (HepaRG spheroids; read-out: HCS endpoint MEC): 0.693 µM
DILI prediction HepaRG spheroids (HCS-MEC) (HepaRG spheroids): +VE (MEC < 25 × Cmax.tot cut-off)

SMILES: CC(C)[N+](C)(CCOC(=O)C1c2ccccc2Oc2ccccc21)C(C)C [propantheline bromide]
DILI severity category (Chen et al. [2016]) [1]: No
DILI severity category (Chen 2016) [1]: No
DILI prediction hLiMTs (HCS-MEC) (hLiMTs [3]): -VE
hLiMTs/100xCmax, Proctor (2017) (hLiMTs [4]): -VE
hLiMTs/100uM, Proctor (2017) (hLiMTs [4]): -VE
PHH/100xCmax, Proctor (2017) (PHH): -VE
PHH/100uM, Proctor (2017) (PHH): -VE
Assigned DILI category [5]: 1
Bayesian Machine Learning DILI prediction, Williams (2019) [6]: -VE
Cmax [10]: 440 nM
DILI prediction HepaRG spheroids (HCS-MEC) (HepaRG spheroids): -VE

hLiMTs <25x Avg Cmax ATP (hLiMTs [3]): -ve
hLiMTs <100x Avg Cmaxu ATP (hLiMTs [3]): -ve
hLiMTs <25x Avg Cmax HCS (hLiMTs [3]): -ve
hLiMTs <100x Avg Cmaxu HCS (hLiMTs [3]): -ve
hLiMTs <25x Avg Cmax All (hLiMTs [3]): -ve
hLiMTs Cmax max All (hLiMTs [3]): -ve
hLiMTs Cmax min All (hLiMTs [3]): -ve
hLiMTs <10 uM All (hLiMTs [3]): -ve
hLiMTs <100x Avg Cmaxu All (hLiMTs [3]): -ve
HepaRG <25x Avg Cmax ATP (HepaRG spheroids): -ve
HepaRG <100x Avg Cmaxu ATP (HepaRG spheroids): -ve
HepaRG <25x Avg Cmax HCS (HepaRG spheroids): -ve
HepaRG <100x Avg Cmaxu HCS (HepaRG spheroids): -ve
HepaRG <25x Avg Cmax All (HepaRG spheroids): -ve
HepaRG Cmax max All (HepaRG spheroids): -ve
HepaRG Cmax min All (HepaRG spheroids): -ve
HepaRG <10 uM All (HepaRG spheroids): -ve
HepaRG <100x Avg Cmaxu All (HepaRG spheroids): -ve
SMILES: Cc1c(-c2ccccc2)oc2c(C(=O)OCCN3CCCCC3)cccc2c1=O [flavoxate]
DILI severity category (Chen et al. [2016]) [1]: No
DILI severity category (Chen 2016) [1]: No
DILI severity category [1, 11]: No
DILI +VE (5-8), DILI -VE (-4) ([1]; ref Chen 2016): -VE
DILI severity category ([1]; ref Chen 2016): vNo-DILI-Concern
AC50 (hLiMTs [3]; read-out: ATP endpoint AC50): 127 µM
minimal effective concentration (hLiMTs [3]; read-out: ATP endpoint MEC): 111 µM
DILI prediction hLiMTs (HCS-MEC) (hLiMTs [3]): -VE
hLiMTs ATP <100uM (hLiMTs [4]): -VE
hLiMTs/100xCmax, Proctor (2017) (hLiMTs [4]): -VE
hLiMTs/100uM, Proctor (2017) (hLiMTs [4]): -VE
PHH/100xCmax, Proctor (2017) (PHH): -VE
PHH/100uM, Proctor (2017) (PHH): -VE
PHH ATP <100uM (PHH): -VE
Assigned DILI category [5]: 1
In vivo DILI ([5]; ref Proctor 2017): -VE
In vivo DILI ([5]; ref Williams 2019): -VE
Bayesian Machine Learning DILI prediction, Williams (2019) [6]: -VE
Bayesian Machine Learning [6]: -VE
Cmax [10]: 1790 nM
DILI prediction HepaRG spheroids (HCS-MEC) (HepaRG spheroids): -VE
